Experimental data as given in ChEMBL document CHEMBL5113490, “Discovery of CN0 as a novel proteolysis-targeting chimera (PROTAC) degrader of PARP1 that can activate the cGAS/STING immunity pathway combined with daunorubicin” (Bioorg Med Chem, 2022).
Calls of active or inactive are those of the source. The calls are words filed in the database; no cut-off is given here.

Key:
MDA-MB-231 [1] = assay: Antiproliferative activity against human MDA-MB-231 cells assessed as increase in cell killing by T cells at 10 uM in presence of 0.5 uM daunorubicin measured after 24 hrs by flow cytometry analysis; assay type: functional, cell-based
MDA-MB-231 [2] = assay: Growth inhibition of human MDA-MB-231 cells assessed as combination index at 10 uM in presence of 1 uM daunorubicin; assay type: functional
[3] = Half-life in rat at 8 mg/kg, iv; assay type: ADME, organism-based; conditions: in vivo
MDA-MB-231 [4] = assay: Growth inhibition of human MDA-MB-231 cells assessed as combination index at 10 uM in presence of 0.25 uM daunorubicin; assay type: functional
4T1 [5] = assay: Growth inhibition of mouse 4T1 cells assessed as combination index at 10 uM in presence of 1 uM daunorubicin; assay type: functional
MDA-MB-231 [6] = assay: Inhibition of DNA repair in human MDA-MB-231 cells assessed as induction of free cytosolic dsDNA at 5 uM in presence of 0.5 uM daunorubicin measured after 24 hrs by DAPI staining method; assay type: functional, cell-based
[7] = Cmax in rat at 8 mg/kg, iv; assay type: ADME, organism-based; design: dose 8 mg/kg, route iv; conditions: in vivo
MDA-MB-231 [8] = assay: Activation of cGAS/STING pathway in human MDA-MB-231 cells assessed as upregulation of CCL5 mRNA expression at 10 uM in presence of 0.5 uM daunorubicin measured after 24 hrs; assay type: cell-based; conditions: filed as activator
MDA-MB-231 [9] = assay: Growth inhibition of human MDA-MB-231 cells at 10 uM in presence of 0.25 uM daunorubicin; assay type: functional; conditions: read-out: GI
4T1 [10] = assay: Antitumor activity against mouse 4T1 cells allografted in immunocompetent mouse assessed as increase in CD8-positive T cells at 25 mg/kg, ip administered once a day in presence of daunorubicin at 0.5 mg/kg, ip administered once a day; assay type: functional, organism-based
4T1 [11] = assay: Growth inhibition of mouse 4T1 cells at 10 uM in presence of 0.5 uM daunorubicin; assay type: functional; conditions: read-out: GI
MDA-MB-231 [12] = assay: Growth inhibition of human MDA-MB-231 cells assessed as combination index at 10 uM in presence of 4 uM daunorubicin; assay type: functional
[13] = Toxicity in immunocompetent mouse allografted with mouse 4T1 cells assessed as effect on body weight at 25 mg/kg, ip administered once a day in presence of daunorubicin at 0.5 mg/kg, ip administered once a day; assay type: organism-based; conditions: in vivo
[14] = Cytotoxicity against human MCF-10A cells assessed as growth inhibition at 10 uM in presence of 0.25 uM daunorubicin; assay type: toxicity, cell-based; conditions: read-out: GI
4T1 [15] = assay: Growth inhibition of mouse 4T1 cells assessed as combination index at 10 uM in presence of 0.25 uM daunorubicin; assay type: functional
MDA-MB-231 [16] = assay: Growth inhibition of human MDA-MB-231 cells at 10 uM in presence of 1 uM daunorubicin; assay type: functional; conditions: read-out: GI
MDA-MB-231 [17] = assay: Activation of cGAS/STING pathway in human MDA-MB-231 cells assessed as increase in STING phosphorylation at 10 uM in presence of 0.5 uM daunorubicin measured after 24 hrs; assay type: cell-based; conditions: filed as activator
4T1 [18] = assay: Growth inhibition of mouse 4T1 cells assessed as combination index at 10 uM in presence of 0.5 uM daunorubicin; assay type: functional
[19] = target: T1, Protein cereblon/Poly [ADP-ribose] polymerase 1 (Homo sapiens, UniProt P09874+Q96SW2); assay: Protac activity at CRBN/PARP1 in human MDA-MB-231 cells assessed as PARP1 degradation measured after 24 hrs; assay type: cell-based
Target sequence in this assay (P09874 whole entry): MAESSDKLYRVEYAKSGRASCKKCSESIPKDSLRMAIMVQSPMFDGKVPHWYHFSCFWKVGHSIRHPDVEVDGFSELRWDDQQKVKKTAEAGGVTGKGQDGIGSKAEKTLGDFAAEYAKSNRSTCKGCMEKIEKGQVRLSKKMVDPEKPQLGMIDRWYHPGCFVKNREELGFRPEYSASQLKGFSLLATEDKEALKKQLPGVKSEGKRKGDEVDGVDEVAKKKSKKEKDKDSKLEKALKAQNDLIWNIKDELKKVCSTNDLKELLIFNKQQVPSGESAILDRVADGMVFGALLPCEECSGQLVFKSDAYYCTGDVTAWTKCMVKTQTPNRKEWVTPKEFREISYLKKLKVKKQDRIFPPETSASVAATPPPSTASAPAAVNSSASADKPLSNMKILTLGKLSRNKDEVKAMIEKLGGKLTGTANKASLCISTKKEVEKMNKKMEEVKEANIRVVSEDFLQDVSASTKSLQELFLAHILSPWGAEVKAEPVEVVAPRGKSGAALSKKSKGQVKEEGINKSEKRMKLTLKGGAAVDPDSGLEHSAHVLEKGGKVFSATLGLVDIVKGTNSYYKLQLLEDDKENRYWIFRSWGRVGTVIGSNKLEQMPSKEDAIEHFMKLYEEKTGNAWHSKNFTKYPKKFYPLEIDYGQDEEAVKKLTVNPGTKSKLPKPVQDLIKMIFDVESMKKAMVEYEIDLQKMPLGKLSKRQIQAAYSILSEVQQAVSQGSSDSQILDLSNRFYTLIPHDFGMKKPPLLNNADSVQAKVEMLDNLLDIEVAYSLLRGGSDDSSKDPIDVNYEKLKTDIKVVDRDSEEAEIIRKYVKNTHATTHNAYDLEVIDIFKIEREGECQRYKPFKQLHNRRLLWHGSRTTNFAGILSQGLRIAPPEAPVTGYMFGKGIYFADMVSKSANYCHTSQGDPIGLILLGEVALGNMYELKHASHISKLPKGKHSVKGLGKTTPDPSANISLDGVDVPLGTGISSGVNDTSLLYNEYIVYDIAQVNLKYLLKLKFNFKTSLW
Target sequence in this assay (Q96SW2 whole entry): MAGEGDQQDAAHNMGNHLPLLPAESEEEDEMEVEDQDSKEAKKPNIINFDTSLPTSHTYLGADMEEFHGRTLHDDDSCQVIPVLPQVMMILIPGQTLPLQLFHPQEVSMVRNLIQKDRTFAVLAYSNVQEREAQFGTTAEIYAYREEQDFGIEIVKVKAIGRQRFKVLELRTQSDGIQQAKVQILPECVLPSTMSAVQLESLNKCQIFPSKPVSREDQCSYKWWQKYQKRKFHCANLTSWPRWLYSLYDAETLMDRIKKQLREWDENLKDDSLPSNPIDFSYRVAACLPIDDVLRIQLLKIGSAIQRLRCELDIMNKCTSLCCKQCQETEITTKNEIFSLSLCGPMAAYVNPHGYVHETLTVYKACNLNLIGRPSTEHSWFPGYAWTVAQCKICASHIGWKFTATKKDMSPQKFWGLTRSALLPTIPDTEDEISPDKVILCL

4T1 [20] = assay: Antitumor activity against mouse 4T1 cells allografted in immunocompetent mouse assessed as reduction in tumor volume at 25 mg/kg, ip administered once a day in presence of daunorubicin at 0.5 mg/kg, ip administered once a day; assay type: functional, organism-based
[21] = Cytotoxicity against human MCF-10A cells assessed as growth inhibition at 10 uM in presence of 0.5 uM daunorubicin; assay type: toxicity, cell-based; conditions: read-out: GI
MDA-MB-231 [22] = assay: Activation of cGAS/STING pathway in human MDA-MB-231 cells assessed as increase in P65 phosphorylation at 10 uM in presence of 0.5 uM daunorubicin measured after 24 hrs; assay type: cell-based; conditions: filed as activator
[23] = Cytotoxicity against human MCF-10A cells assessed as growth inhibition at 10 uM; assay type: toxicity, cell-based; conditions: read-out: GI
MDA-MB-231 [24] = assay: Activation of cGAS/STING pathway in human MDA-MB-231 cells assessed as upregulation of CXCL9 mRNA expression at 10 uM in presence of 0.5 uM daunorubicin measured after 24 hrs; assay type: cell-based; conditions: filed as activator
4T1 [25] = assay: Growth inhibition of mouse 4T1 cells at 10 uM in presence of 0.25 uM daunorubicin; assay type: functional; conditions: read-out: GI
[26] = MRT in rat at 8 mg/kg, iv; assay type: ADME, organism-based; conditions: in vivo
[27] = target: T1, Protein cereblon/Poly [ADP-ribose] polymerase 1; assay: Protac activity at CRBN/PARP1 in human MDA-MB-231 cells assessed as PARP1 degradation at 10 uM measured after 4 to 48 hrs; assay type: cell-based; conditions: time 4-48 hrs
Target sequence in this assay (P09874 2-1014 limits assumed): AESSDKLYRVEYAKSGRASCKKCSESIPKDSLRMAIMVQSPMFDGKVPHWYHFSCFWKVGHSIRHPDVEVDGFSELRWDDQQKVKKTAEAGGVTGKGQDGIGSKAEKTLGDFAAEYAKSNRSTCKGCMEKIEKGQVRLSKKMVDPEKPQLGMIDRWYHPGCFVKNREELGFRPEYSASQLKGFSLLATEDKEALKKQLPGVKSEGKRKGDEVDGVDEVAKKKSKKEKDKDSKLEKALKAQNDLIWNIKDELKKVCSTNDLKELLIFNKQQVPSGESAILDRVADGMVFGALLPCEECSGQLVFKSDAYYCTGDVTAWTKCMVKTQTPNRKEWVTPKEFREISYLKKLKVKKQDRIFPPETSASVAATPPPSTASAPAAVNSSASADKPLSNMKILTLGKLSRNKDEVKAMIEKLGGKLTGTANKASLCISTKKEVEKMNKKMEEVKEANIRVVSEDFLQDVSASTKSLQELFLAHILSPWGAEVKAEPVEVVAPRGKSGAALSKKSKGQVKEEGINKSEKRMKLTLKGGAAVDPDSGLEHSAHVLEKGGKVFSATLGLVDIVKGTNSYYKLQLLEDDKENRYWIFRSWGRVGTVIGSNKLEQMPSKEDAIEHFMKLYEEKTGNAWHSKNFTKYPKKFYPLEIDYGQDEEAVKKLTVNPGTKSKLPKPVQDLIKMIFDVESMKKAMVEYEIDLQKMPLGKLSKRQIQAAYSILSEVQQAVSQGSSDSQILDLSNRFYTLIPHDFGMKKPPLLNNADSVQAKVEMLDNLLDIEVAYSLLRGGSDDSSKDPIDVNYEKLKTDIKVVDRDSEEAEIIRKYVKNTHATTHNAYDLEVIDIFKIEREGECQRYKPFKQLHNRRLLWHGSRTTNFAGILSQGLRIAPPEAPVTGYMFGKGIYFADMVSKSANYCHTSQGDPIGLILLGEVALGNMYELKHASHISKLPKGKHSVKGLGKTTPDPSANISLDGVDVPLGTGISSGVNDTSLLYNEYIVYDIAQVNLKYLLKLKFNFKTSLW
Target sequence in this assay (Q96SW2 whole entry partner): as the sequence (Q96SW2 whole entry) above

MDA-MB-231 [28] = assay: Activation of cGAS/STING pathway in human MDA-MB-231 cells assessed as upregulation of CXCL10 mRNA expression at 10 uM in presence of 0.5 uM daunorubicin measured after 24 hrs; assay type: cell-based; conditions: filed as activator
4T1 [29] = assay: In vivo protac activity at CRBN/PARP1 in mouse 4T1 cells xenografted in mouse assessed as PARP1 degradation at 25 mg/kg, ip administered once a day; assay type: functional, organism-based
MDA-MB-231 [30] = assay: Activation of cGAS/STING pathway in human MDA-MB-231 cells assessed as increase in TBK1 phosphorylation at S172 residue at 10 uM in presence of 0.5 uM daunorubicin measured after 24 hrs; assay type: cell-based; conditions: filed as activator
MDA-MB-231 [31] = assay: Activation of cGAS/STING pathway in human MDA-MB-231 cells assessed as increase in IRF3 phosphorylation at S396 residue at 10 uM in presence of 0.5 uM daunorubicin measured after 24 hrs; assay type: cell-based; conditions: filed as activator
MDA-MB-231 [32] = assay: Growth inhibition of human MDA-MB-231 cells at 10 uM in presence of 4 uM daunorubicin; assay type: functional; conditions: read-out: GI
[33] = target: T1, Protein cereblon/Poly [ADP-ribose] polymerase 1; assay: Protac activity at CRBN/PARP1 in human MDA-MB-231 cells assessed as PARP1 degradation at 10 uM measured after 3 hrs in presence of 10 uM Z-VAD-FMK; assay type: cell-based
Target sequence in this assay (P09874 2-1014 limits assumed): as the sequence (P09874 2-1014 limits assumed) above
Target sequence in this assay (Q96SW2 whole entry partner): as the sequence (Q96SW2 whole entry) above

4T1 [34] = assay: Growth inhibition of mouse 4T1 cells at 10 uM in presence of 1 uM daunorubicin; assay type: functional; conditions: read-out: GI
MDA-MB-231 [35] = assay: Activation of cGAS/STING pathway in human MDA-MB-231 cells assessed as upregulation of STING mRNA expression at 10 uM in presence of 0.5 uM daunorubicin measured after 24 hrs; assay type: cell-based; conditions: filed as activator
[36] = target: Protein cereblon (Homo sapiens) (UniProt Q96SW2); assay: Binding affinity to CRBN in human MDA-MB-231 cells measured by thermal shift assay; assay type: cell-based
Chain of Protein cereblon (Homo sapiens) (Q96SW2 whole entry): as above

MDA-MB-231 [37] = assay: Inhibition of DNA repair in human MDA-MB-231 cells assessed as induction of gamma-H2AX level at 10 uM in presence of 0.5 uM daunorubicin measured after 2 hrs by western blot analysis; assay type: functional, cell-based
MDA-MB-231 [38] = assay: Growth inhibition of human MDA-MB-231 cells at 10 uM; assay type: functional; conditions: read-out: GI
MDA-MB-231 [39] = assay: Activation of cGAS/STING pathway in human MDA-MB-231 cells assessed as upregulation of cGAS mRNA expression at 10 uM in presence of 0.5 uM daunorubicin measured after 24 hrs; assay type: cell-based; conditions: filed as activator
[40] = AUC (0 to t) in rat at 8 mg/kg, iv; assay type: ADME, organism-based; design: dose 8 mg/kg, route iv; conditions: in vivo
4T1 [41] = assay: Growth inhibition of mouse 4T1 cells at 10 uM; assay type: functional; conditions: read-out: GI
[42] = Cytotoxicity against human MCF-10A cells assessed as growth inhibition at 0.25 uM; assay type: toxicity, cell-based; conditions: read-out: GI
MDA-MB-231 [43] = assay: Growth inhibition of human MDA-MB-231 cells at 0.25 uM; assay type: functional; conditions: read-out: GI
4T1 [44] = assay: Growth inhibition of mouse 4T1 cells at 0.25 uM; assay type: functional; conditions: read-out: GI
MDA-MB-231 [45] = assay: Growth inhibition of human MDA-MB-231 cells at 1 uM; assay type: functional; conditions: read-out: GI
[46] = Cytotoxicity against human MCF-10A cells assessed as growth inhibition at 0.5 uM; assay type: toxicity, cell-based; conditions: read-out: GI
MDA-MB-231 [47] = assay: Growth inhibition of human MDA-MB-231 cells at 4 uM; assay type: functional; conditions: read-out: GI
4T1 [48] = assay: Growth inhibition of mouse 4T1 cells at 0.5 uM; assay type: functional; conditions: read-out: GI
4T1 [49] = assay: Growth inhibition of mouse 4T1 cells at 1 uM; assay type: functional; conditions: read-out: GI

## NC(=O)c1cccc2cn(-c3ccc(C4CCCN(c5cccc6c5C(=O)N(C5CCC(=O)NC5=O)C6=O)C4)cc3)nc12 (centres undefined)
MDA-MB-231 [1]
  Activity: Active
MDA-MB-231 [2]
  CI: 0.06
[3]
  half-life: 112 min
MDA-MB-231 [4]
  CI: 0.21
4T1 [5]
  CI: 0.0001
MDA-MB-231 [6]
  inhibition: Active
[7]
  Cmax: 5770 ng/mL
MDA-MB-231 [8]
  Activity: Active
MDA-MB-231 [9]
  inhibition of growth at 10 µM: 22.5%
4T1 [10]
  Activity: Active
4T1 [11]
  inhibition of growth at 10 µM: 70.1%
MDA-MB-231 [12]
  CI: 0.12
[13]
  Activity: Non-Toxic
[14]
  inhibition at 10 µM: 35%
4T1 [15]
  CI: 0.44
MDA-MB-231 [16]
  inhibition of growth at 10 µM: 38.1%
MDA-MB-231 [17]
  Activity: Active
4T1 [18]
  CI: 0.45
[19]
  DC50: 252 nM
4T1 [20]
  Activity: Active
[21]
  inhibition at 10 µM: 41.2%
MDA-MB-231 [22]
  Activity: Active
[23]
  inhibition at 10 µM: 4.93%
MDA-MB-231 [24]
  Activity: Active
4T1 [25]
  inhibition of growth at 10 µM: 65.5%
[26]
  MRT: 2.55 h
[27]
  Activity: Active
MDA-MB-231 [28]
  Activity: Active
4T1 [29]
  Activity: Active
MDA-MB-231 [30]
  Activity: Active
MDA-MB-231 [31]
  Activity: Active
MDA-MB-231 [32]
  inhibition of growth at 10 µM: 59.8%
[33]
  Activity: Active
4T1 [34]
  inhibition of growth at 10 µM: 98.2%
MDA-MB-231 [35]
  Activity: Active
[36]
  Activity: Active
MDA-MB-231 [37]
  inhibition: Active
MDA-MB-231 [38]
  inhibition of growth at 10 µM: 4.55%
MDA-MB-231 [39]
  Activity: Active
[40]
  AUC(0-t): 6960 ng·h/mL
4T1 [41]
  inhibition of growth at 10 µM: 2.71%

## COc1cccc2c1C(=O)c1c(O)c3c(c(O)c1C2=O)C[C@@](O)(C(C)=O)C[C@@H]3O[C@H]1C[C@H](N)[C@H](O)[C@H](C)O1 [DAUNORUBICIN]
[42]
  inhibition at 0.25 µM: 35%
MDA-MB-231 [43]
  inhibition of growth at 0.25 µM: 9.76%
4T1 [44]
  inhibition of growth at 0.25 µM: 60%
MDA-MB-231 [45]
  inhibition of growth at 1 µM: 10.7%
[46]
  inhibition at 0.5 µM: 46.1%
MDA-MB-231 [47]
  inhibition of growth at 4 µM: 36.9%
4T1 [48]
  inhibition of growth at 0.5 µM: 63.6%
4T1 [49]
  inhibition of growth at 1 µM: 69.8%
